Counter-ions that a name gives are not always drawn.
melting point [°C] | SMILES
185 to 189 | C[C@@]1(O)[C@H](O)[C@@H](COP2(=O)OCC[C@H](c3cncc(Br)c3)O2)O[C@H]1n1ccc2c(=O)[nH]c(N)nc21 (stereo partly drawn) (as salt: salt) [Compound 17.26, 2-amino-7-(cis-5′-O-[4-(5-bromo-pyridin-3-yl)-2-oxo-1,3,2-dioxaphosphorinan-2-yl]-2′-C methyl-beta-D-ribofuranosyl)-7H-pyrrolo[2,3-d]pyrimidin-4(3H)-one]
75 to 78 | C[C@@]1(O)[C@H](O)[C@@H](COP2(=O)OCC[C@@H](c3cc(F)ccc3F)O2)O[C@H]1n1cnc2c(N)ncnc21 (stereo partly drawn) [Compound 21.3, cis-5′-O-[4-(2,5difluorophenyl)-2-oxo-1,3,2-dioxaphosphorinan-2-yl]-2′-C-beta-methyl-adenosine]
192 to 195 | C[C@@]12OC(=O)O[C@@H]1[C@@H](COP1(=O)OCC[C@H](c3ccncc3)O1)O[C@H]2n1ccc2c(N)ncnc21 (stereo partly drawn) [Compound 23.2, 4-amino-7-(2′,3′-carbonyl-cis-5′-O-[4-(S)-(pyridin-4-yl)-2-oxo-1,3,2-dioxaphosphorinan-2-yl]-2′-C-methyl-beta-D-ribofuranosyl)-7H-pyrrolo[2,3-d]pyrimidine]
182 to 185 | CC(=O)O[C@@H]1[C@@H](COP2(=O)OCC[C@H](c3ccncc3)O2)O[C@@H](n2ccc3c(N)ncnc32)[C@]1(C)O (stereo partly drawn) [Compound 22.1, 4-amino-7-(3′-acetyl-cis-5′-O-[4-(S)-(pyridin-4-yl)-2-oxo-1,3,2-dioxaphosphorinan-2-yl]-2′-C-methyl-beta-D-ribofuranosyl)-7H-pyrrolo[2,3-d]pyrimidine]
128 to 133 | C[C@@]1(O)[C@H](O)[C@@H](CO[P@]2(=O)OCC[C@H](c3ccccc3)O2)O[C@H]1n1ccc2c(=O)[nH]c(N)nc21 [Compound 17.16, 2-amino-7-(cis-5-O-[4-(R)-phenyl-2-oxo-1,3,2-dioxaphosphorinan-2-yl]-2-C methyl-beta-D-ribofuranosyl)-7H-pyrrolo[2,3-d]pyrimidin-4(3H)-one]
125 to 128 | C[C@@]1(O)[C@H](O)[C@@H](COP2(=O)OCC[C@@H](c3cccc(Cl)c3)O2)O[C@H]1n1cnc2c(N)ncnc21 (stereo partly drawn) (as salt: trifluoroacetic acid salt) [Compound 21.1, cis-5′-O-[4-(S)-(3-chlorophenyl)-2-oxo-1,3,2-dioxaphosphorinan-2-yl]-2′-C-beta-methyl-adenosine trifluoroacetic acid salt]
127 to 130 | C[C@@]12OC(=O)O[C@@H]1[C@@H](COP1(=O)OCC[C@H](c3cccc(Cl)c3)O1)O[C@H]2n1ccc2c(N)ncnc21 (stereo partly drawn) [Compound 23.1, 4-amino-7-(2′,3′-carbonyl-cis-5′-O-[4-(S)-(3-chlorophenyl)-2-oxo-4,3,2-dioxaphosphorinan-2-yl]-2′-C-methyl-beta-D-ribofuranosyl)-7H-pyrrolo[2,3-d]pyrimidine]
170 to 180 | C[C@@]1(O)[C@H](O)[C@@H](CO[P@]2(=O)OCC[C@H](c3cccc(Cl)c3)O2)O[C@H]1n1ccc2c(=O)[nH]c(N)nc21 (as salt: trifluoroacetic acid salt) [Compound 17.10, 2-amino-7-(cis-5′-O-[4-(R)-(3-chlorophenyl)-2-oxo-1,3,2-dioxaphosphorinan-2-yl]-2′-C methyl-beta-D-ribofuranosyl)-7H-pyrrolo[2,3-d]pyrimidin-4(3H)-one trifluoroacetic acid salt]
192 to 194 | CC1(C)C[C@H](c2ccccc2)OP(=O)(OC[C@H]2O[C@@H](n3ccc4c(=O)[nH]c(N)nc43)[C@](C)(O)[C@@H]2O)O1 (stereo partly drawn) (as salt: trifluoroacetic acid salt) [Compound 17.18, 2-amino-7-(cis-5′-O-[6,6-dimethyl-4-phenyl-2-oxo-1,3,2-dioxaphosphorinan-2-yl]-2′C methyl-beta-D-ribofuranosyl)-7H-pyrrolo[2,3-d]pyrimidin-4(3H)-one trifluoroacetic acid salt]
192 to 195 | C[C@@]1(O)[C@H](O)[C@@H](COP2(=O)OCC[C@H](c3ccc(Cl)c(Cl)c3)O2)O[C@H]1n1ccc2c(=O)[nH]c(N)nc21 (stereo partly drawn) (as salt: salt) [Compound 17.22, 2-amino-7-(cis-5′-O-[4-(3,4-dichlorophenyl)-2-oxo-1,3,2-dioxaphosphorinan-2-yl]-2′-C methyl-beta-D-ribofuranosyl)-7H-pyrrolo[2,3-d]pyrimidin-4(3H)-one]

The next lines start with the compound.

SMILES | melting point [°C]
C[C@@]1(O)[C@H](O)[C@@H](COP2(=O)OC[C@@H](c3ccccc3)[C@@H](c3ccccc3)O2)O[C@H]1n1ccc2c(N)ncnc21 (stereo partly drawn) (as salt: trifluoroacetic acid salt) [Compound 16.13, 4-amino-7-(cis-5′-O-14,5-cis-diphenyl-2-oxo-1,3,2-dioxaphosphorinan-2-yl]-2′-C-methyl-beta-D-ribofuranosyl)-7H-pyrrolo[2,3-d]pyrimidine trifluoroacetic acid salt] | 174 to 177
COc1ccc(F)c([C@H]2CCOP(=O)(OC[C@H]3O[C@@H](n4ccc5c(N)ncnc54)[C@](C)(O)[C@@H]3O)O2)c1 (stereo partly drawn) (as salt: trifluoroacetic acid salt) [Compound 16.37, 4-amino-7-(cis-5′-O-[4-(2-fluoro-5-methoxyphenyl)-2-oxo-1,3,2-dioxaphosphorinan-2-yl]-2′-C-methyl-beta-D-ribofuranosyl)-7H-pyrrolo[2,3-d]pyrimidine trifluoroacetic acid salt] | 80 to 85
C[C@@]1(O)[C@H](O)[C@@H](COP2(=O)OCC[C@H](c3ccc(F)c(Br)c3)O2)O[C@H]1n1ccc2c(N)ncnc21 (stereo partly shown) (as salt: salt) [Compound 16.31] | 122 to 125
C[C@@]1(O)[C@H](O)[C@@H](COP2(=O)OCC[C@H](c3ccc(F)c(Cl)c3)O2)O[C@H]1n1ccc2c(N)ncnc21 (stereo partly drawn) [Compound 16.3, 4-amino-7-(cis-5′-O-[4-(3-chloro-4-fluorophenyl)-2-oxo-1,3,2-dioxaphosphorinan-2-yl]-2′-C-methyl-beta-D-ribofuranosyl)-7H-pyrrolo[2,3-d]pyrimidine] | 128 to 130
C[C@@]1(O)[C@H](O)[C@@H](COP2(=O)OC[C@@H](c3ccccc3)[C@@H](c3ccccc3)O2)O[C@H]1n1ccc2c(N)ncnc21 (stereo partly drawn) [Compound 16.22, 4-amino-7-(trans-5′-O-[4,5-cis-diphenyl-2-oxo-1,3,2-dioxaphosphorinan-2-yl]-2′-C-methyl-beta-D-ribofuranosyl)-7H-pyrrolo[2,3-d]pyrimidine] | 160 to 163
C[C@@]1(O)[C@H](O)[C@@H](COP2(=O)OCC[C@H](c3ccccc3C(F)(F)F)O2)O[C@H]1n1ccc2c(N)ncnc21 (stereo partly drawn) [Compound 16.29, 4-amino-7-(cis-5′-O-[4-(2-trifluoromethylphenyl)-2-oxo-4,3,2-dioxaphosphorinan-2-yl]-2′-C-methyl-beta-D-ribofuranosyl)-7H-pyrrolo[2,3-d]pyrimidine] | 115 to 120
C[C@@]1(O)[C@H](O)[C@@H](COP2(=O)OCC[C@@H](c3cncc(Br)c3)O2)O[C@H]1n1ccc2c(N)ncnc21 (stereo partly drawn) [Compound 16.11, 4-amino-7-(cis-5′-O-[4-(5-bromopyridin-3-yl)-2-oxo-1,3,2-dioxaphosphorinan-2-yl]-2′-C-methyl-beta-D-ribofuranosyl)-7H-pyrrolo[2,3-d]pyrimidine] | 132 to 135
C[C@@]1(O)[C@H](O)[C@@H](COP2(=O)OCC[C@H](c3cc(F)ccc3F)O2)O[C@H]1n1ccc2c(N)ncnc21 (stereo partly drawn) [Compound 16.2, 4-amino-7-(cis-5′-O-[4-(2,5-difluorophenyl)-2-oxo-1,3,2-dioxaphosphorinan-2-yl]-2-C-methyl-beta-D-ribofuranosyl)-7H-pyrrolo[2,3-d]pyrimidine] | 145 to 148
C[C@@]1(O)[C@H](O)[C@@H](CO[P@@]2(=O)OCC[C@@H](c3cccc(Cl)c3)O2)O[C@H]1n1ccc2c(N)ncnc21 [Compound 16.5, 4-amino-7-(cis-5′-[4-(S)-(3-chlorophenyl)-2-oxo-1,3,2-dioxaphosphorinan-2-yl]-2′-C-methyl-beta-D-ribofuranosyl)-7H-pyrrolo[2,3-d]pyrimidine] | 135 to 138
C[C@@]1(O)[C@H](O)[C@@H](CO[P@@]2(=O)OCC[C@@H](c3ccccc3)O2)O[C@H]1n1ccc2c(N)ncnc21 [Compound 16.12, 4-amino-7-(cis-5′-O-[4-(S)-phenyl-2-oxo-1,3,2-dioxaphosphorinan-2-y]-2′-C-methyl-beta-D-ribofuranosyl)-7H-pyrrolo[2,3-d]pyrimidine] | 115 to 118
C[C@@]1(O)[C@H](O)[C@@H](COP2(=O)O[C@H](c3ccccc3)C[C@H](c3ccccc3)O2)O[C@H]1n1ccc2c(N)ncnc21 (stereo partly drawn) (as salt: trifluoroacetic acid salt) [Compound 16.16, 4-amino-7-(cis-5′-O-[4,6-cis-diphenyl-2-oxo-1,3,2-dioxaphosphorinan-2-yl]-2′-C-methyl-beta-D-ribofuranosyl)-7H-pyrrolo[2,3-d]pyrimidine trifluoroacetic acid salt] | 140 to 143
C[C@@]1(O)[C@H](O)[C@@H](COP2(=O)OCC[C@@H](c3cc(Cl)ccc3Br)O2)O[C@H]1n1ccc2c(N)ncnc21 (stereo partly drawn) [Compound 16.25, 4-amino-7-(cis-5′-O-[4-(2-bromo-5-chlorophenyl)-2-oxo-1,3,2-dioxaphosphorinan-2-yl]-2′-C-methyl-beta-D-ribofuranosyl)-7H-pyrrolo[2,3-d]pyrimidine] | 193 to 196
C[C@@]1(O)[C@H](O)[C@@H](CO[P@]2(=O)OCC[C@H](c3ccccc3)O2)O[C@H]1n1ccc2c(N)ncnc21 [Compound 16.34] | 177 to 180
CC1(C)C[C@H](c2ccccc2)OP(=O)(OC[C@H]2O[C@@H](n3ccc4c(N)ncnc43)[C@](C)(O)[C@@H]2O)O1 (stereo partly drawn) [Compound 16.4, 4-amino-7-(cis-5′-O-[6,6-dimethyl-4-phenyl-2-oxo-1,3,2-dioxaphosphorinan-2-yl]-2′-C-methyl-beta-D-ribofuranosyl)-7H-pyrrolo[2,3-d]pyrimidine] | 140 to 142
C[C@@]1(O)[C@H](O)[C@@H](CO[P@]2(=O)OCC[C@H](c3cccc(Cl)c3)O2)O[C@H]1n1ccc2c(N)ncnc21 [Compound 16.28, 4-amino-7-(cis-5′-O-[4-(R)-(3-chlorophenyl)-2-oxo-1,3,2-dioxaphosphorinan-2-yl]-2′-C-methyl-beta-D-ribofuranosyl)-7H-pyrrolo[2,3-d]pyrimidine] | 126 to 128

— patent publication US20050182252A1, “Novel 2'-C-methyl nucleoside derivatives” (priority 2004, published 2005)
